Experiments:
Experiment in all cases: normalised response (% of control), CellTiter-Glo; higher = more viable cells (100 = DMSO, 0 = benzethonium chloride kill control)
Settings in all cases: incubation time: 72 h
[1] = tested on: CAL-51
How it was run: (§1)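 Two readouts were taken after 72 h: CellTox Green fluorescence (485/520 nm) first, then CellTiter-Glo luminescence after 10 min at room temperature. Breast cancer cell lines had been seeded as 20 µl suspension into 384-well plates holding compound at 5 concentrations in 10-fold steps across a compound-specific 10,000-fold range. Each value is a normalised signal at a single concentration, with plates scaled to 0.1 % DMSO (100) and a positive kill control (0).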

[2] = tested on: HCC1143
How it was run: as §1

[3] = tested on: HCC1599
How it was run: as §1

[4] = tested on: MDA-MB-453
How it was run: as §1

[5] = tested on: MDA-MB-231
How it was run: as §1

[6] = tested on: CAL-148
How it was run: as §1

[7] = tested on: MCF-10A
How it was run: as §1

[8] = tested on: BT-474
How it was run: as §1

[9] = tested on: BT-549
How it was run: as §1

[10] = tested on: CAL-85-1
How it was run: as §1

[11] = tested on: DU-4475
How it was run: as §1

[12] = tested on: CAL-120
How it was run: as §1

[13] = tested on: MDA-MB-436
How it was run: as §1

[14] = tested on: HCC1937
How it was run: as §1

[15] = tested on: MDA-MB-468
How it was run: as §1

[16] = tested on: HDQ-P1
How it was run: as §1

[17] = tested on: SK-BR-3
How it was run: as §1

[18] = tested on: MFM-223
How it was run: as §1

[19] = tested on: Hs578T
How it was run: as §1

Structure (SMILES) | normalised response [1] [%] | normalised response [2] [%] | normalised response [3] [%] | normalised response [4] [%] | normalised response [5] [%] | normalised response [6] [%] | normalised response [7] [%] | normalised response [8] [%] | normalised response [9] [%] | normalised response [10] [%] | normalised response [11] [%] | normalised response [12] [%] | normalised response [13] [%] | normalised response [14] [%] | normalised response [15] [%] | normalised response [16] [%] | normalised response [17] [%] | normalised response [18] [%] | normalised response [19] [%]
CC(C)(C)c1cc(NC(=O)Nc2ccc(-c3cn4c(n3)sc3cc(OCCN5CCOCC5)ccc34)cc2)no1 [Quizartinib] (1 nM) | 112 | 110 | 116 | 104 | 106 | 109 | 110 | 118 | 98.8 | 106 | 104 | 111 | 104 | 101 | 104 | 98.5 | 56.6 | 111 | 97.2
COc1cc(Nc2ncc(F)c(Nc3ccc4c(n3)NC(=O)C(C)(C)O4)n2)cc(OC)c1OC [Tamatinib] (10 nM) | 98.3 | 108 | 95.1 | 108 | 107 | 105 | 107 | 100 | 101 | 103 | 106 | 102 | 95.9 | 102 | 97.6 | 103 | 100 | 111 | 113
Cc1cc(C(C)Nc2ccccc2)c2nc(N3CCOCC3)cc(=O)n2c1 (stereo not given) [TGX-221] (1 nM) | 109 | 93.8 | 89.6 | 98.5 | 92.7 | 95.5 | 96.5 | 93.1 | 99.4 | 92.1 | 95.2 | 95.8 | 84 | 97.6 | 92.8 | 96.2 | 97 | 101 | 98.4
CS(=O)(=O)OCCCCOS(C)(=O)=O [Busulfan] (100 nM) | 121 | 112 | 94.5 | 109 | 101 | 101 | 108 | 101 | 97.2 | 98.1 | 109 | 99.1 | 97.2 | 97.9 | 106 | 99.7 | 97.5 | 112 | 105
O=C(c1ccc(OCCN2CCCCC2)cc1)c1c(-c2ccc(O)cc2)sc2cc(O)ccc12 [Raloxifene] (10 nM) | 68.2 | 115 | 100 | 94.7 | 99.8 | 106 | 106 | 105 | 94.8 | 99 | 107 | 98.7 | 101 | 106 | 112 | 107 | 107 | 105 | 105
CN(c1ccccc1CNc1nc(Nc2ccc3c(c2)CC(=O)N3)ncc1C(F)(F)F)S(C)(=O)=O (1 nM) | 96.2 | 93 | 98.4 | 95.4 | 95.4 | 91.6 | 96.3 | 95.5 | 100 | 94.9 | 95.9 | 93 | 106 | 99.5 | 90.3 | 101 | 96 | 89.5 | 97.8
CS(=O)(=O)CCNCc1ccc(-c2ccc3ncnc(Nc4ccc(OCc5cccc(F)c5)c(Cl)c4)c3c2)o1 [Lapatinib] (0.1 nM) | 110 | 99.2 | 90.2 | 121 | 100 | 110 | 98.4 | 102 | 101 | 106 | 109 | 96 | 86.2 | 98.8 | 112 | 101 | 114 | 104 | 101
CCS(=O)(=O)c1cccc(-c2cc(C(=O)NC3CCN(C)CC3)c(C)c3[nH]c4ncc(C)cc4c23)c1 [TAK-901] (1 nM) | 87.8 | 108 | 117 | 97 | 101 | 108 | 113 | 98.5 | 101 | 98 | 108 | 98.1 | 95.5 | 94.2 | 110 | 96 | 100 | 112 | 103
FC(F)c1nc2ccccc2n1-c1nc(N2CCOCC2)nc(N2CCOCC2)n1 [ZSTK474] (1 nM) | 81.5 | 96.8 | 101 | 106 | 99.7 | 96.8 | 106 | 98.8 | 104 | 92.5 | 96.6 | 97.7 | 97.9 | 100 | 100 | 101 | 97.7 | 99 | 102
C[C@@H]1CCN(C(=O)CC#N)C[C@@H]1N(C)c1ncnc2[nH]ccc12 [Tofacitinib] (0.5 nM) | 71.3 | 98 | 102 | 103 | 104 | 113 | 111 | 106 | 95.6 | 107 | 117 | 99 | 102 | 97.3 | 103 | 103 | 113 | 103 | 100
COc1cc(Nc2ncc(F)c(Nc3ccc4c(n3)NC(=O)C(C)(C)O4)n2)cc(OC)c1OC [Tamatinib] (1 nM) | 105 | 108 | 114 | 121 | 107 | 102 | 111 | 98.5 | 101 | 97.9 | 106 | 102 | 105 | 98.5 | 101 | 101 | 112 | 108 | 111
C[C@@H]1C=C2C(=O)O[C@@H]3CC[C@H](C1)[C@]23O [Galiellalactone] (50 nM) | 101 | 107 | 98.2 | 108 | 104 | 111 | 114 | 104 | 98.9 | 102 | 105 | 102 | 106 | 102 | 106 | 104 | 112 | 114 | 104
Cc1cc(C(C)Nc2ccccc2)c2nc(N3CCOCC3)cc(=O)n2c1 (stereo not given) [TGX-221] (10 nM) | 96.5 | 102 | 98.4 | 98.6 | 92.2 | 95 | 92.3 | 92.5 | 95.2 | 98.2 | 97.9 | 94.5 | 98 | 98.8 | 94.7 | 95.4 | 93.2 | 96.3 | 97.6
CCOc1cc2ncc(C#N)c(Nc3ccc(OCc4ccccn4)c(Cl)c3)c2cc1NC(=O)/C=C/CN(C)C [Neratinib] (1 nM) | 80 | 101 | 99.2 | 99.5 | 107 | 107 | 109 | 100 | 96.3 | 94.5 | 105 | 96.9 | 97.1 | 96.7 | 101 | 93.8 | 73.3 | 106 | 104
CN(c1ccccc1CNc1nc(Nc2ccc3c(c2)CC(=O)N3)ncc1C(F)(F)F)S(C)(=O)=O (10 nM) | 102 | 99.5 | 91.4 | 96.6 | 87.9 | 101 | 100 | 92.1 | 97 | 94.6 | 94.8 | 94.4 | 92 | 97.5 | 84.8 | 101 | 111 | 91.4 | 92
